Measurements taken from patent publication US10370333B2 (Sanford Burnham Prebys Medical Discovery Institute, priority 2012, dated 2019).

biological target: TNAP (Homo sapiens (Human), UniProt P05186); test: TNAP (PPi) inhibition assay, pyrophosphate as substrate; format: biochemical
Procedure: Expression plasmids containing a secreted epitope-tagged TNAP were transfected into COS-1 cells for transient expression. The medium was replaced with Opti-MEM 24 h later and serum-free media containing secreted proteins was collected 60 hours after electroporation. The medium was dialyzed against TBS containing 1 mM MgCl2 and […] (to remove phosphate) and filtered through a […] cellulose acetate filter.
To determine the inhibition selectivity for inhibitor candidates, human TNAP, PLAP or IAP were added to microtiter plates followed by addition of the substrate pNPP (0.5 mM) and activity was measured in 1 M DEA-HCl buffer, pH 9.8 or in 1 M Tris-HCl buffer, pH 7.5, containing 1 mM MgCl2 and 20 μM ZnCl2, in the presence of potential inhibitors (0-30 μM). TNAP, PLAP and IAP activities were adjusted to an approximate λA405 nm, equivalent to 1, measured after 30 min. Residual AP activity in the presence of inhibitors was expressed as percentage of the control activity. To investigate the mechanism of inhibition, double reciprocal plots of enzyme activity (expressed as mA405 nm min−1) vs. substrate concentration were constructed, in the presence of various concentrations of added inhibitors (0-30 μM). The y-axis intercepts of the 1/v vs. 1/[S] plots, were then plotted vs. [I] to graphically extract Ki values as the x-intercept in this plot. […] Inhibitors were further tested and sorted based on their kinetic properties at pH 7.4 using PPi, the relevant natural substrate of TNAP. […] Amounts of released phosphate were measured using the Biomol Green Reagent (Biomol Research Laboratories, Inc., Plymouth Meeting, Pa.).

SMILES | IC50 [µM]
COc1ccc(OC)c(S(=O)(=O)N(c2cnc3ccccc3c2)C(C)C)c1 [Example VII-14, 2,5-Dimethoxy-N-isopropyl-N-(quinolin-3-yl)benzenesulfonamide] | > 1
COc1cc(Cl)c(Br)cc1S(=O)(=O)Nc1cccnc1 | < 0.1
CNC(=O)c1ccc2ncc(NS(=O)(=O)c3cc(OC)ccc3OC)cc2c1 [Example IX-11, 3-(2,5-Dimethoxy-benzenesulfonylamino)-quinoline-6-carboxylic Acid Methylamide] | 0.1 to 1
O=S(=O)(Nc1cncc(-c2cnccn2)c1)c1cc(Br)ccc1OC(F)(F)F [Example XI-21, 5-Bromo-N-(5-(pyrazin-2-yl)pyridin-3-yl)-2-(trifluoromethoxy)benzenesulfonamide] | 0.1 to 1
COc1ccc(OC)c(S(=O)(=O)Nc2cnc3ccc(CN(C)C)cc3c2)c1 [Example IX-15] | 0.1 to 1
COc1ccc(OC)c(S(=O)(=O)Nc2cncc(-c3ccccc3C(F)(F)F)c2)c1 [Example III-43, 2,5-Dimethoxy-N-[5-(2-trifluoromethyl-phenyl)-pyridin-3-yl]-benzenesulfonamide] | 0.1 to 1
COc1ccc(Br)cc1S(=O)(=O)Nc1ccc(N2CCCCC2)nc1 [Example VIII-17, 5-Bromo-2-methoxy-N-(3,4,5,6-tetrahydro-2H-[1,2′]bipyridinyl-5′-yl)-benzenesulfonamide] | > 1
COc1ccc(OC)c(S(=O)(=O)Nc2nnc(C(F)(F)F)s2)c1 [Example V-20] | > 1
COc1ccc(-c2ccncc2)cc1S(=O)(=O)Nc1cnc2ccccc2c1 [Example II-9, 2-Methoxy-5-pyridin-4-yl-N-quinolin-3-yl-benzenesulfonamide] | 0.1 to 1
COc1ccc(Br)cc1S(=O)(=O)Nc1cncc(-c2ccccc2C)c1 [Example III-38, 5-Bromo-2-methoxy-N-(5-(o-tolyl)pyridin-3-yl)benzenesulfonamide] | 0.1 to 1
COc1ccc(OC)c(S(=O)(=O)Nc2cccnn2)c1 [Example V-25, 2,5-Dimethoxy-N-pyridazin-3-yl-benzenesulfonamide] | > 1
COc1ccc(Cl)cc1S(=O)(=O)Nc1cncc(-c2cnccn2)c1 [Example III-96, 5-Chloro-2-methoxy-N-(5-(pyrazin-2-yl)pyridin-3-yl)benzenesulfonamide] | < 0.1
COc1ccc(Br)cc1S(=O)(=O)Nc1ncccn1 [Example V-28, 5-Bromo-2-methoxy-N-pyrimidin-2-yl-benzenesulfonamide] | > 1
COc1ccc(Br)cc1S(=O)(=O)Nc1cncc(-c2ccc(C)cc2)c1 [Example III-11, 5-Bromo-2-methoxy-N-(5-p-tolyl-pyridin-3-yl)-benzenesulfonamide] | 0.1 to 1
COc1ccc(OC)c(S(=O)(=O)Nc2cncc(-c3ccc(C)cc3)c2)c1 [Example III-10, 2,5-Dimethoxy-N-(5-p-tolyl-pyridin-3-yl)-benzenesulfonamide] | 0.1 to 1
COc1ccc(-c2ccccc2)cc1S(=O)(=O)Nc1cccnc1 [Example I-7, 4-Methoxy-biphenyl-3-sulfonic acid pyridin-3-ylamide] | 0.1 to 1
COCCNc1ccc(NS(=O)(=O)c2cc(Br)ccc2OC)cn1 [Example VIII-11, 5-Bromo-2-methoxy-N-(6-((2-methoxyethyl)amino)pyridin-3-yl)benzenesulfonamide] | > 1
COc1ccc(OC)c(S(=O)(=O)Nc2cncc(-c3cnn(C)c3)c2)c1 [Example III-88, 2,5-Dimethoxy-N-(5-(1-methyl-1H-pyrazol-4-yl)pyridin-3-yl)benzenesulfonamide] | < 0.1
COc1ccc(OC)c(S(=O)(=O)Nc2cc(C(F)(F)F)n(C)n2)c1 [Example V-14, 2,5-Dimethoxy-N-(1-methyl-5-trifluoromethyl-1H-pyrazol-3-yl)-benzenesulfonamide] | > 1
CCOC(=O)c1cncc(NS(=O)(=O)c2cc(OC)ccc2OC)c1 [Example IV-12, Ethyl 5-(2,5-dimethoxyphenylsulfonamido)nicotinate] | < 0.1
COc1ccc(OC)c(S(=O)(=O)Nc2cncc(-c3ccoc3)c2)c1 [Example III-70, N-(5-(Furan-3-yl)pyridin-3-yl)-2,5-dimethoxybenzenesulfonamide] | < 0.1
COc1ccc(Cl)cc1S(=O)(=O)Nc1cncc(-c2ccc(C(F)(F)F)cc2)c1 [Example III-15, 5-Chloro-2-methoxy-N-(5-(4-(trifluoromethyl)phenyl)pyridin-3-yl)benzenesulfonamide] | 0.1 to 1

SMILES | IC50 [µM]
COc1ccc(OC)c(S(=O)(=O)Nc2cncc(-c3ccccc3C)c2)c1 [Example III-37, 2,5-Dimethoxy-N-(5-(o-tolyl)pyridin-3-yl)benzenesulfonamide] | 0.1 to 1
COc1ccc(Cl)cc1S(=O)(=O)Nc1cncc(-c2cnn(C)c2)c1 [Example III-90, 5-Chloro-2-methoxy-N-(5-(1-methyl-1H-pyrazol-4-yl)pyridin-3-yl)benzenesulfonamide] | < 0.1
COC(=O)c1ccc(OC)c(S(=O)(=O)Nc2cnc3ccccc3c2)c1 [Example II-13, Methyl 4-methoxy-3-(N-(quinolin-3-yl)sulfamoyl)benzoate] | < 0.1
COc1ncc(Br)cc1S(=O)(=O)Nc1cnc2ccccc2c1 [Example VI-1, 5-Bromo-2-methoxy-pyridine-3-sulfonic acid quinolin-3-ylamide] | < 0.1
COc1ccc(OC)c(S(=O)(=O)Nc2cncc(C(=O)NC3CCCCC3)c2)c1 [Example IV-39, 5-(2,5-Dimethoxyphenylsulfonamido)-N-cyclohexylnicotinamide] | < 0.1
COc1ccc(S(=O)(=O)Nc2cnc3ccccc3c2)c(OC)c1 [Example II-4, 2,4-Dimethoxy-N-quinolin-3-yl-benzenesulfonamide] | > 1
COc1ccc(Br)cc1S(=O)(=O)Nc1ccc(N)nc1 [Example VIII-3, 5-Bromo-2-methoxy-N-(6-Amino-pyridin-3-yl)-benzenesulfonamide] | > 1
COc1ccc(Cl)cc1S(=O)(=O)Nc1cncc(-c2ccccn2)c1 [Example III-60, N-([2,3′-Bipyridin]-5′-yl)-5-chloro-2-methoxybenzenesulfonamide] | < 0.1
COc1ccc(OC)c(S(=O)(=O)Nc2cncc(-c3ccc(C(F)(F)F)cc3)c2)c1 [Example III-13, 2,5-Dimethoxy-N-(5-(4-(trifluoromethyl)phenyl)pyridin-3-yl)benzenesulfonamide] | 0.1 to 1
COc1ccc(-c2cncc(NS(=O)(=O)c3cc(Br)ccc3OC)c2)cc1 [Example III-2, 5-Bromo-2-methoxy-N-[5-(4-methoxy-phenyl)-pyridin-3-yl]-benzenesulfonamide] | 0.1 to 1
COc1ccc(OC)c(S(=O)(=O)Nc2cnc3ccc(C(=O)NC4CC4)cc3c2)c1 [Example IX-13, 3-(2,5-Dimethoxy-benzenesulfonylamino)-quinoline-6-carboxylic Acid Cyclopropylamide] | 0.1 to 1
COc1ccc(-c2cncc(NS(=O)(=O)c3cc(OC)ccc3OC)c2)cc1 [Example III-1] | < 0.1
CCCNC(=O)c1ccc(OC)c(S(=O)(=O)Nc2cccnc2)c1 [Example I-18, 4-Methoxy-N-propyl-3-(pyridin-3-ylsulfamoyl)-benzamide] | > 1
COc1ccc(Cl)cc1S(=O)(=O)Nc1cncc(-c2ccsc2)c1 [Example III-78, 5-Chloro-2-methoxy-N-(5-(thiophen-3-yl)pyridin-3-yl)benzenesulfonamide] | < 0.1
COc1ccc(Br)cc1S(=O)(=O)Nc1cncc(-c2ccncc2)c1 [Example III-65, N-([3,4′-Bipyridin]-5-yl)-5-bromo-2-methoxybenzenesulfonamide] | < 0.1
COc1ccc(OC)c(S(=O)(=O)Nc2cncc(-c3ccccn3)c2)c1 [Example III-58, N-([2,3′-Bipyridin]-5′-yl)-2,5-dimethoxybenzenesulfonamide] | < 0.1
COc1ccc(Br)cc1S(=O)(=O)Nc1cncc(-c2cncs2)c1 [Example III-83, 5-Bromo-2-methoxy-N-(5-(thiazol-5-yl)pyridin-3-yl)benzenesulfonamide] | < 0.1
CNC(=O)c1cncc(NS(=O)(=O)c2cc(Br)ccc2OC)c1 [Example IV-16, 5-(5-Bromo-2-methoxyphenylsulfonamido)-N-methylnicotinamide] | 0.1 to 1
COc1ccc(Cl)cc1S(=O)(=O)Nc1cncc(C(=O)Oc2ccccc2)c1 [Example IV-10, Phenyl 5-(5-chloro-2-methoxyphenylsulfonamido)nicotinate] | < 0.1
COc1ccc(OC(F)(F)F)cc1S(=O)(=O)Nc1cncc(C(=O)OC2CCCCC2)c1 [Example XII-17, Cyclohexyl 5-(2-methoxy-5-(trifluoromethoxy)phenylsulfonamido)nicotinate] | < 0.1
COc1ccc(OC)c(S(=O)(=O)Nc2ccc(N)nc2)c1 [Example VIII-4, 2,5-Dimethoxy-N-(6-Amino-pyridin-3-yl)-benzenesulfonamide] | > 1
COc1ccc(Cl)cc1S(=O)(=O)Nc1cncc(-c2ccoc2)c1 [Example III-72, 5-Chloro-N-(5-(furan-3-yl)pyridin-3-yl)-2-methoxybenzenesulfonamide] | < 0.1
